Patent publication EP0878194A1, “REMEDIES OR PREVENTIVES FOR AIDS” (SANKYO COMPANY LIMITED, priority 1996, dated 1997)
Read-outs that look alike come from different tables or passages of the source.

Legend:
[1] = system: HIV-1IIIB strain; assay: In vitro combined test: survival of HIV-1IIIB-infected MT4 cells (MTT), isobologram and combination index; assay type: cell-based
[2] = system: HIV-1IIIB strain; assay: as above; assay type: cell-based; settings: read-out: IC50 of Preparation example 117
Description: Human T cell transformed cell line MT4 cells were cultured in RPMI 1640 medium containing 10% fetal bovine serum. HIV-1IIIB strain was obtained from HIV-1IIIB chronically infected Molt-4 cells as a supernatant fluid and used as the source of infectious viruses. The 50% tissue culture infectious dose (TCID50) of this fluid was determined by the endpoint titration methods.
The compound of Preparation example 117 was added in a serial dilution in the vertical direction to six 96-well microtiter plates. As a result of adding ZDV (Sigma) in a serial dilution in the horizontal direction, diluted solutions containing mixtures of various concentrations were prepared in 96-well microtiter plates (n=4).
MT4 cells were exposed to HIV-1IIIB fluid at a multiplicity of infection (m.o.i) 0.001 TCID50/ml at 37°C for 1 hour, then the cells were washed twice with PBS, and aliquots (5 x 10^4 cells/well) were placed in the plates containing various concentration of agent prepared as described above. After incubation for 6 days, the survival rate of infected MT4 cells was determined by the cell survival test using MTT (Sigma). Incidentally, in this test, the absorbance at O.D. 540 nm was measured by a plate reader, and the survival rate was determined by drawing a cell survival curve.
Analysis was performed according to the method of Barenbaum using an isobologram and combination index (CI) (Barenbaum, M.C., Pharmacol. Rev., 41, 93-141, 1989). In this case, the CI value was calculated by the general isobole equation. Determination of synergy, addition and […] was performed by isobologram curve patterns and/or statistical comparison of experimental CI values with CI values in typical additive effects (CI values when identical compounds are used in combination (0.85±0.11, Taylor, D.L. et al., Antiviral Chem. Chemother., 6, 143-152, 1995)).

Structure (SMILES): OC[C@@H]1CC[C@H](n2cnc3c(O)ncnc32)O1 [DDI, 2',3'-dideoxyinosine, reference compound]
- IC50 ([1]; Human immunodeficiency virus 1, MT4, alone (Preparation example 117 0), Table 34 experiment, read-out: IC50 of DDI): 5.4 µM
- IC50 ([1]; Human immunodeficiency virus 1, MT4, with Preparation example 117 0.39 ng/ml, read-out: IC50 of DDI): 4.27 µM
- IC50 ([1]; Human immunodeficiency virus 1, MT4, with Preparation example 117 0.78 ng/ml, read-out: IC50 of DDI): 4.38 µM
- IC50 ([1]; Human immunodeficiency virus 1, MT4, with Preparation example 117 1.56 ng/ml, read-out: IC50 of DDI): 3.65 µM
- IC50 ([1]; Human immunodeficiency virus 1, MT4, with Preparation example 117 3.13 ng/ml, read-out: IC50 of DDI): 2.8 µM
- IC50 ([1]; Human immunodeficiency virus 1, MT4, with Preparation example 117 3.85 ng/ml, read-out: IC50 of DDI): 2.5 µM
- IC50 ([1]; Human immunodeficiency virus 1, MT4, with Preparation example 117 6.25 ng/ml, read-out: IC50 of DDI): 1.67 µM
- IC50 ([1]; Human immunodeficiency virus 1, MT4, with Preparation example 117 7.70 ng/ml, read-out: IC50 of DDI): 1.25 µM
- IC50 ([1]; Human immunodeficiency virus 1, MT4, with Preparation example 117 10.0 ng/ml, read-out: IC50 of DDI): 0.63 µM
- IC50 ([1]; Human immunodeficiency virus 1, MT4, with Preparation example 117 10.5 ng/ml, read-out: IC50 of DDI): 0.313 µM
- IC50 ([1]; Human immunodeficiency virus 1, MT4, with Preparation example 117 11.0 ng/ml, read-out: IC50 of DDI): 0.156 µM

Structure (SMILES): Cn1cc(C(=O)O)c(=O)c2cc(F)c(N3CCN(c4ncccn4)CC3)c(C(F)(F)F)c21 [Preparation example 117, 6-fluoro-8-trifluoromethyl-1,4-dihydro-4-oxo-1-methyl-7-[4-(2-pyrimidinyl)piperazin-1-yl]quinoline-3-carboxylic acid]
- IC50 ([1]; Human immunodeficiency virus 1, MT4, alone (3TC 0), Table 33 experiment, read-out: IC50 of Preparation example 117): 0.016 µg/mL
- IC50 ([1]; Human immunodeficiency virus 1, MT4, alone (DDI 0), Table 34 experiment, read-out: IC50 of Preparation example 117): 0.014 µg/mL
- IC50 ([1]; Human immunodeficiency virus 1, MT4, alone (ZDV 0), Table 32 experiment, read-out: IC50 of Preparation example 117): 0.039 µg/mL
- IC50 ([1]; Human immunodeficiency virus 1, MT4, with 3TC 0.0156 µg/ml, read-out: IC50 of Preparation example 117): 0.013 µg/mL
- IC50 ([1]; Human immunodeficiency virus 1, MT4, with 3TC 0.0313 µg/ml, read-out: IC50 of Preparation example 117): 0.0127 µg/mL
- IC50 ([1]; Human immunodeficiency virus 1, MT4, with 3TC 0.063 µg/ml, read-out: IC50 of Preparation example 117): 0.0124 µg/mL
- IC50 ([1]; Human immunodeficiency virus 1, MT4, with 3TC 0.125 µg/ml, read-out: IC50 of Preparation example 117): 0.008 µg/mL
- IC50 ([1]; Human immunodeficiency virus 1, MT4, with 3TC 0.19 µg/ml, read-out: IC50 of Preparation example 117): 0.00625 µg/mL
- IC50 ([1]; Human immunodeficiency virus 1, MT4, with 3TC 0.25 µg/ml, read-out: IC50 of Preparation example 117): 0.00457 µg/mL
- IC50 ([1]; Human immunodeficiency virus 1, MT4, with 3TC 0.34 µg/ml, read-out: IC50 of Preparation example 117): 0.00313 µg/mL
- IC50 ([1]; Human immunodeficiency virus 1, MT4, with 3TC 0.43 µg/ml, read-out: IC50 of Preparation example 117): 0.00156 µg/mL
- IC50 ([1]; Human immunodeficiency virus 1, MT4, with 3TC 0.50 µg/ml (Table 33, first line with 0.50), read-out: IC50 of Preparation example 117): 0.00096 µg/mL
- IC50 ([1]; Human immunodeficiency virus 1, MT4, with 3TC 0.50 µg/ml (Table 33, second line with 0.50), read-out: IC50 of Preparation example 117): 0.00038 µg/mL
- IC50 ([1]; Human immunodeficiency virus 1, MT4, with 3TC 0.52 µg/ml, read-out: IC50 of Preparation example 117): 0.00078 µg/mL
- IC50 ([1]; Human immunodeficiency virus 1, MT4, with DDI 0.156 µM, read-out: IC50 of Preparation example 117): 0.011 µg/mL
- IC50 ([1]; Human immunodeficiency virus 1, MT4, with DDI 0.313 µM, read-out: IC50 of Preparation example 117): 0.0105 µg/mL
- IC50 ([1]; Human immunodeficiency virus 1, MT4, with DDI 0.63 µM, read-out: IC50 of Preparation example 117): 0.01 µg/mL
- IC50 ([1]; Human immunodeficiency virus 1, MT4, with DDI 1.25 µM, read-out: IC50 of Preparation example 117): 0.0077 µg/mL
- IC50 ([1]; Human immunodeficiency virus 1, MT4, with DDI 1.67 µM, read-out: IC50 of Preparation example 117): 0.00625 µg/mL
- IC50 ([1]; Human immunodeficiency virus 1, MT4, with DDI 2.50 µM, read-out: IC50 of Preparation example 117): 0.00385 µg/mL
- IC50 ([1]; Human immunodeficiency virus 1, MT4, with DDI 2.80 µM, read-out: IC50 of Preparation example 117): 0.00313 µg/mL
- IC50 ([1]; Human immunodeficiency virus 1, MT4, with DDI 3.65 µM, read-out: IC50 of Preparation example 117): 0.00156 µg/mL
- IC50 ([1]; Human immunodeficiency virus 1, MT4, with DDI 4.27 µM, read-out: IC50 of Preparation example 117): 0.00039 µg/mL
- IC50 ([1]; Human immunodeficiency virus 1, MT4, with DDI 4.38 µM, read-out: IC50 of Preparation example 117): 0.00078 µg/mL
- IC50 ([1]; Human immunodeficiency virus 1, MT4, with ZDV 0.78 ng/ml, read-out: IC50 of Preparation example 117): 0.028 µg/mL
- IC50 ([1]; Human immunodeficiency virus 1, MT4, with ZDV 1.20 ng/ml, read-out: IC50 of Preparation example 117): 0.025 µg/mL
- IC50 ([1]; Human immunodeficiency virus 1, MT4, with ZDV 3.13 ng/ml, read-out: IC50 of Preparation example 117): 0.0162 µg/mL
- IC50 ([1]; Human immunodeficiency virus 1, MT4, with ZDV 5.60 ng/ml, read-out: IC50 of Preparation example 117): 0.0125 µg/mL
- IC50 ([1]; Human immunodeficiency virus 1, MT4, with ZDV 12.5 ng/ml, read-out: IC50 of Preparation example 117): 0.0053 µg/mL
- IC50 ([1]; Human immunodeficiency virus 1, MT4, with ZDV 14.5 ng/ml, read-out: IC50 of Preparation example 117): 0.00156 µg/mL
- IC50 ([2]; Human immunodeficiency virus 1, MT4, with ZDV 1.56 ng/ml): 0.0241 µg/mL
- IC50 ([2]; Human immunodeficiency virus 1, MT4, with ZDV 6.25 ng/ml): 0.0111 µg/mL
- IC50 ([2]; Human immunodeficiency virus 1, MT4, with ZDV 11.6 ng/ml): 0.00625 µg/mL
- IC50 ([2]; Human immunodeficiency virus 1, MT4, with ZDV 13.9 ng/ml): 0.00313 µg/mL

Structure (SMILES): Nc1ccn([C@@H]2CS[C@H](CO)O2)c(=O)n1 [3TC, 4-amino-1-(2-hydroxymethyl-1,3-oxathioran-5-yl)-(1H)-pyrimidin-2-one, reference compound]
- IC50 ([1]; Human immunodeficiency virus 1, MT4, alone (Preparation example 117 0), Table 33 experiment, read-out: IC50 of 3TC): 0.6 µg/mL
- IC50 ([1]; Human immunodeficiency virus 1, MT4, with Preparation example 117 0.38 ng/ml, read-out: IC50 of 3TC): 0.5 µg/mL
- IC50 ([1]; Human immunodeficiency virus 1, MT4, with Preparation example 117 0.78 ng/ml, read-out: IC50 of 3TC): 0.52 µg/mL
- IC50 ([1]; Human immunodeficiency virus 1, MT4, with Preparation example 117 0.96 ng/ml, read-out: IC50 of 3TC): 0.5 µg/mL
- IC50 ([1]; Human immunodeficiency virus 1, MT4, with Preparation example 117 1.56 ng/ml, read-out: IC50 of 3TC): 0.43 µg/mL
- IC50 ([1]; Human immunodeficiency virus 1, MT4, with Preparation example 117 3.13 ng/ml, read-out: IC50 of 3TC): 0.34 µg/mL
- IC50 ([1]; Human immunodeficiency virus 1, MT4, with Preparation example 117 4.57 ng/ml, read-out: IC50 of 3TC): 0.25 µg/mL
- IC50 ([1]; Human immunodeficiency virus 1, MT4, with Preparation example 117 6.25 ng/ml, read-out: IC50 of 3TC): 0.19 µg/mL
- IC50 ([1]; Human immunodeficiency virus 1, MT4, with Preparation example 117 8.0 ng/ml, read-out: IC50 of 3TC): 0.125 µg/mL
- IC50 ([1]; Human immunodeficiency virus 1, MT4, with Preparation example 117 12.4 ng/ml, read-out: IC50 of 3TC): 0.063 µg/mL
- IC50 ([1]; Human immunodeficiency virus 1, MT4, with Preparation example 117 12.7 ng/ml, read-out: IC50 of 3TC): 0.0313 µg/mL
- IC50 ([1]; Human immunodeficiency virus 1, MT4, with Preparation example 117 13.0 ng/ml, read-out: IC50 of 3TC): 0.0156 µg/mL
